Results as given in the NIST ThermoML archive (doi:10.1021/je060271a).
Where “and” joins values, the source holds several entries; their conditions need not be identical. Equal values may be shown once. ± gives the expanded uncertainty stated by the source.

Details: 283.15 K, Liquid, Vibrating tube method

CCCCCC(=O)OCC(COC(=O)CCCCC)(COC(=O)CCCCC)COC(=O)CCCCC [pentaerythritol tetrahexanoate]
Details	mass density
5731.2 kPa	1007.5 ± 1.2 kg/m3
5738.3 kPa	1007.6 ± 1.2 kg/m3
5746.2 kPa	1007.4 ± 1.2 kg/m3
5753.3 kPa	1007.5 ± 1.2 kg/m3
5760 kPa	1007.4 ± 1.2 kg/m3
5767.3 kPa	1007.5 ± 1.2 kg/m3
5775.5 kPa	1007.5 ± 1.2 kg/m3
5783.9 kPa	1007.6 ± 1.2 kg/m3
5790.7 kPa	1007.4 ± 1.2 kg/m3
5797.8 kPa	1007.5 ± 1.2 kg/m3
5804.7 kPa	1007.5 ± 1.2 kg/m3
5812.8 kPa	1007.6 ± 1.2 kg/m3
5819.9 kPa	1007.5 ± 1.2 kg/m3
5826.8 kPa	1007.5 ± 1.2 kg/m3
5833.7 kPa	1007.4 ± 1.2 kg/m3
5842.2 kPa	1007.5 ± 1.2 kg/m3
5849.3 kPa	1007.5 ± 1.2 kg/m3
5856.6 kPa	1007.5 ± 1.2 kg/m3
5863.6 kPa	1007.7 ± 1.2 kg/m3
5872 kPa	1007.5 ± 1.2 kg/m3
5878.9 kPa	1007.5 ± 1.2 kg/m3
5885.8 kPa	1007.5 ± 1.2 kg/m3
5894.4 kPa	1007.7 ± 1.2 kg/m3
5901.3 kPa	1007.5 ± 1.2 kg/m3
5908.3 kPa	1007.6 ± 1.2 kg/m3
5915.7 kPa	1007.5 ± 1.2 kg/m3
5924.3 kPa	1007.6 ± 1.2 kg/m3
5930 kPa	1007.7 ± 1.2 kg/m3
5935.7 kPa	1007.7 ± 1.2 kg/m3
5942.8 kPa	1007.6 ± 1.2 kg/m3
5953 kPa	1007.5 ± 1.2 kg/m3
5960.1 kPa	1007.6 ± 1.2 kg/m3
5968.6 kPa	1007.6 ± 1.2 kg/m3
5976.4 kPa	1007.6 ± 1.2 kg/m3
5984.7 kPa	1007.6 ± 1.2 kg/m3
5991.9 kPa	1007.6 ± 1.2 kg/m3
5999.2 kPa	1007.7 ± 1.2 kg/m3
6006.6 kPa	1007.7 ± 1.2 kg/m3
6015.4 kPa	1007.6 ± 1.2 kg/m3
6022.9 kPa	1007.7 ± 1.2 kg/m3
6030.1 kPa	1007.6 ± 1.2 kg/m3
6038.8 kPa	1007.8 ± 1.2 kg/m3
6046 kPa	1007.6 ± 1.2 kg/m3
6053.1 kPa	1007.6 ± 1.2 kg/m3
6061.9 kPa	1007.7 ± 1.2 kg/m3
6069.2 kPa	1007.6 ± 1.2 kg/m3
6076.6 kPa	1007.8 ± 1.2 kg/m3
6084.1 kPa	1007.7 ± 1.2 kg/m3
6092.7 kPa	1007.8 ± 1.2 kg/m3
6100.3 kPa	1007.7 ± 1.2 kg/m3
6107.6 kPa	1007.6 ± 1.2 kg/m3
6115.2 kPa	1007.6 ± 1.2 kg/m3
6124 kPa	1007.8 ± 1.2 kg/m3
6131.6 kPa	1007.7 ± 1.2 kg/m3
6139 kPa	1007.7 ± 1.2 kg/m3
6146.6 kPa	1007.7 ± 1.2 kg/m3
6155.4 kPa	1007.7 ± 1.2 kg/m3
6163 kPa	1007.7 ± 1.2 kg/m3
6170.1 kPa	1007.8 ± 1.2 kg/m3
6179.1 kPa	1007.7 ± 1.2 kg/m3
6186.9 kPa	1007.6 ± 1.2 kg/m3
6194.5 kPa	1007.8 ± 1.2 kg/m3
6202.1 kPa	1007.8 ± 1.2 kg/m3
6209.7 kPa	1007.9 ± 1.2 kg/m3
6218.9 kPa	1007.8 ± 1.2 kg/m3
6226.1 kPa	1007.8 ± 1.2 kg/m3
6233.7 kPa	1007.8 ± 1.2 kg/m3
6242.7 kPa	1007.8 ± 1.2 kg/m3
6250.3 kPa	1007.9 ± 1.2 kg/m3
6257.9 kPa	1007.8 ± 1.2 kg/m3
6265.5 kPa	1007.8 ± 1.2 kg/m3
6274.9 kPa	1007.7 ± 1.2 kg/m3
6282.3 kPa	1007.9 ± 1.2 kg/m3
6290.1 kPa	1007.8 ± 1.2 kg/m3
6299.1 kPa	1007.7 ± 1.2 kg/m3
6306.5 kPa	1007.9 ± 1.2 kg/m3
6314.3 kPa	1007.8 ± 1.2 kg/m3
6323.1 kPa	1007.8 ± 1.2 kg/m3
6330.4 kPa	1007.8 ± 1.2 kg/m3
6338.1 kPa	1007.8 ± 1.2 kg/m3
6346.1 kPa	1007.8 ± 1.2 kg/m3
6355.4 kPa	1007.9 ± 1.2 kg/m3
6362.3 kPa	1007.8 ± 1.2 kg/m3
6369.9 kPa	1007.8 ± 1.2 kg/m3
6377.7 kPa	1007.8 ± 1.2 kg/m3
6386.6 kPa	1007.9 ± 1.2 kg/m3
6394.2 kPa	1007.9 ± 1.3 kg/m3
6401.7 kPa	1007.9 ± 1.2 kg/m3
6409.5 kPa	1007.9 ± 1.2 kg/m3
6418.4 kPa	1007.9 ± 1.2 kg/m3
6426 kPa	1007.9 ± 1.2 kg/m3
6433.3 kPa	1007.9 ± 1.2 kg/m3
6442.5 kPa	1007.9 ± 1.2 kg/m3
6450.4 kPa	1007.9 ± 1.2 kg/m3
6458.4 kPa	1007.9 ± 1.2 kg/m3
6466.9 kPa	1007.9 ± 1.2 kg/m3
6474.6 kPa	1007.9 ± 1.2 kg/m3
6481.9 kPa	1008 ± 1.2 kg/m3
6491.1 kPa	1007.8 ± 1.2 kg/m3
6498.3 kPa	1008 ± 1.2 kg/m3
6505.6 kPa	1008 ± 1.2 kg/m3
6514.4 kPa	1007.8 ± 1.2 kg/m3
6522 kPa	1007.9 ± 1.2 kg/m3
6529.2 kPa	1007.9 ± 1.2 kg/m3
6536.7 kPa	1008 ± 1.2 kg/m3
6545 kPa	1008 ± 1.2 kg/m3
6552.2 kPa	1007.9 ± 1.2 kg/m3
6559.5 kPa	1008.1 ± 1.2 kg/m3
6566.4 kPa	1007.9 ± 1.2 kg/m3
6573.6 kPa	1008 ± 1.2 kg/m3
6578.7 kPa	1007.9 ± 1.2 kg/m3
6583 kPa	1008 ± 1.2 kg/m3
6587.1 kPa	1008 ± 1.2 kg/m3
6592.1 kPa	1007.9 ± 1.2 kg/m3
6596.3 kPa	1008 ± 1.2 kg/m3
6600.4 kPa	1008.1 ± 1.2 kg/m3
6605.4 kPa	1007.9 ± 1.2 kg/m3
6609.2 kPa	1007.9 ± 1.2 kg/m3
6613.4 kPa	1007.9 ± 1.2 kg/m3
6635.7 kPa	1008 ± 1.2 kg/m3
6640 kPa	1008 ± 1.2 kg/m3
6644.1 kPa	1008.1 ± 1.2 kg/m3
6649 kPa	1008 ± 1.2 kg/m3
6674.5 kPa	1008 ± 1.2 kg/m3
6679.6 kPa	1008 ± 1.2 kg/m3
6683.5 kPa	1008.1 ± 1.2 kg/m3
6687.7 kPa	1008.1 ± 1.2 kg/m3
6692 kPa	1008.1 ± 1.2 kg/m3
6696.5 kPa	1008 ± 1.2 kg/m3
6700.6 kPa	1008 ± 1.2 kg/m3
6704.6 kPa	1008 ± 1.2 kg/m3
6708.6 kPa	1008 ± 1.2 kg/m3
6713.2 kPa	1008 ± 1.2 kg/m3
6717.2 kPa	1008.1 ± 1.2 kg/m3
6759.5 kPa	1008.1 ± 1.2 kg/m3
6769.5 kPa	1008.2 ± 1.2 kg/m3 and 1008.1 ± 1.2 kg/m3
6769.7 kPa	1008.1 ± 1.2 kg/m3 and 1008 ± 1.2 kg/m3
6769.8 kPa	1008 ± 1.2 kg/m3 and 1008.2 ± 1.2 kg/m3 and 1008.1 ± 1.2 kg/m3
6770 kPa	1008.1 ± 1.2 kg/m3
6770.2 kPa	1008 ± 1.2 kg/m3 and 1008.1 ± 1.2 kg/m3
6770.3 kPa	1008.1 ± 1.2 kg/m3
6770.4 kPa	1008.1 ± 1.2 kg/m3
6770.5 kPa	1008.1 ± 1.2 kg/m3
6770.7 kPa	1008 ± 1.2 kg/m3
6770.9 kPa	1008 ± 1.2 kg/m3 and 1008.1 ± 1.2 kg/m3
